Measurements: patent US20020035061A1, “COMPOSITIONS AND METHODS FOR TREATING INFECTIONS USING CATIONIC PEPTIDES ALONE OR IN COMBINATION WITH ANTIBIOTICS” (priority 1996, published 2002)

Tested on: bacterial isolates
Assay: microbe, parasite or virus in culture
Format: cell-based

KKWWRRALQGLKTAGPAIQSVLNK [MBI 21A2]
Peptide MIC Alone (1. Amikacin, A. baumannii ABI001): 8 mg/L | Peptide MIC Alone (1. Amikacin, A. baumannii ABI003): 8 mg/L | Peptide MIC Alone (1. Amikacin, E. faecalis EFS008): >128 mg/L | Peptide MIC Alone (1. Amikacin, E. faecium EFM004): >128 mg/L | Peptide MIC Alone (1. Amikacin, P. aeruginosa PA022): 8 mg/L | Peptide MIC Alone (1. Amikacin, S. aureus SA025 MRSA): 2 mg/L | Peptide MIC Alone (1. Amikacin, S. epidermidis SE003): >128 mg/L | Peptide MIC Alone (1. Amikacin, S. maltophilia SMA018): 16 mg/L | Peptide MIC Alone (1. Amikacin, S. maltophilia SMA022): >128 mg/L | Peptide MIC Alone (3. Ciprofloxacin, P. aeruginosa PA4): >128 mg/L | Peptide MIC Alone (3. Ciprofloxacin, P. aeruginosa PA41): 64 mg/L | Peptide MIC Alone (3. Ciprofloxacin, S. aureus SA25): 16 mg/L | Peptide MIC Alone (3. Ciprofloxacin, S. aureus SA93): 16 mg/L | Peptide MIC Alone (4. Gentamicin, A. baumannii ABI002): 8 mg/L | Peptide MIC Alone (4. Gentamicin, P. aeruginosa PA022): 8 mg/L | Peptide MIC Alone (4. Gentamicin, S. aureus SA025 MRSA): 8 mg/L | Peptide MIC Alone (4. Gentamicin, S. maltophilia SMA019): 16 mg/L | Peptide MIC Alone (4. Gentamicin, S. maltophilia SMA020): 16 mg/L | Peptide MIC Alone (4. Gentamicin, S. maltophilia SMA021): 16 mg/L | Amikacin MIC + Peptide (A. baumannii ABI001): 32 mg/L | Peptide MIC + Amikacin (A. baumannii ABI001): 0.125 mg/L | Gentamicin MIC + Peptide (A. baumannii ABI002): 16 mg/L | Peptide MIC + Gentamicin (A. baumannii ABI002): 0.5 mg/L | Amikacin MIC + Peptide (A. baumannii ABI003): 8 mg/L | Peptide MIC + Amikacin (A. baumannii ABI003): 4 mg/L | Peptide MIC + Piperacillin (E. coli 1): 2 mg/L | Piperacillin MIC + Peptide (E. coli 1): 8 mg/L | Peptide MIC Alone (E. coli 1, Piperacillin section): 4 mg/L | Amikacin MIC + Peptide (E. faecalis EFS008): 32 mg/L | Peptide MIC + Amikacin (E. faecalis EFS008): 0.125 mg/L | Amikacin MIC + Peptide (E. faecium EFM004): 64 mg/L | Peptide MIC + Amikacin (E. faecium EFM004): 16 mg/L | Peptide MIC + Piperacillin (H. influenzae 1): 64 mg/L | Piperacillin MIC + Peptide (H. influenzae 1): 4 mg/L | Peptide MIC Alone (H. influenzae 1, Piperacillin section): >128 mg/L | Peptide MIC + Piperacillin (H. influenzae 2): 32 mg/L | Piperacillin MIC + Peptide (H. influenzae 2): 32 mg/L | Peptide MIC Alone (H. influenzae 2, Piperacillin section): >128 mg/L | Peptide MIC + Piperacillin (P. aeruginosa 23): 16 mg/L | Piperacillin MIC + Peptide (P. aeruginosa 23): 8 mg/L | Peptide MIC Alone (P. aeruginosa 23, Piperacillin section): >128 mg/L | Ciprofloxacin MIC + Peptide (P. aeruginosa PA4): 0.125 mg/L | Peptide MIC + Ciprofloxacin (P. aeruginosa PA4): 64 mg/L | Amikacin MIC + Peptide (P. aeruginosa PA022): 16 mg/L | Gentamicin MIC + Peptide (P. aeruginosa PA022): 8 mg/L | Peptide MIC + Amikacin (P. aeruginosa PA022): 2 mg/L | Peptide MIC + Gentamicin (P. aeruginosa PA022): 2 mg/L | Ciprofloxacin MIC + Peptide (P. aeruginosa PA41): 1 mg/L | Peptide MIC + Ciprofloxacin (P. aeruginosa PA41): 16 mg/L | Peptide MIC + Piperacillin (S. aureus 19 MRSA): 2 mg/L | Piperacillin MIC + Peptide (S. aureus 19 MRSA): 64 mg/L | Peptide MIC Alone (S. aureus 19 MRSA, Piperacillin section): >128 mg/L | Ciprofloxacin MIC + Peptide (S. aureus SA25): 0.5 mg/L | Peptide MIC + Ciprofloxacin (S. aureus SA25): 4 mg/L | Amikacin MIC + Peptide (S. aureus SA025 MRSA): 2 mg/L | Gentamicin MIC + Peptide (S. aureus SA025 MRSA): 32 mg/L | Peptide MIC + Amikacin (S. aureus SA025 MRSA): 1 mg/L | Peptide MIC + Gentamicin (S. aureus SA025 MRSA): 1 mg/L | Ciprofloxacin MIC + Peptide (S. aureus SA93): 8 mg/L | Peptide MIC + Ciprofloxacin (S. aureus SA93): 2 mg/L | Peptide MIC + Piperacillin (S. aureus SB2MRSA): 2 mg/L | Piperacillin MIC + Peptide (S. aureus SB2MRSA): 64 mg/L | Peptide MIC Alone (S. aureus SB2MRSA, Piperacillin section): 32 mg/L | Amikacin MIC + Peptide (S. epidermidis SE003): 4 mg/L | Peptide MIC + Amikacin (S. epidermidis SE003): 64 mg/L | Peptide MIC + Piperacillin (S. maltophilia 6): 16 mg/L | Piperacillin MIC + Peptide (S. maltophilia 6): 64 mg/L | Peptide MIC Alone (S. maltophilia 6, Piperacillin section): 128 mg/L | Peptide MIC + Piperacillin (S. maltophilia 14): 16 mg/L | Piperacillin MIC + Peptide (S. maltophilia 14): 4 mg/L | Peptide MIC Alone (S. maltophilia 14, Piperacillin section): 32 mg/L | Amikacin MIC + Peptide (S. maltophilia SMA018): 64 mg/L | Peptide MIC + Amikacin (S. maltophilia SMA018): 4 mg/L | Gentamicin MIC + Peptide (S. maltophilia SMA019): 16 mg/L | Peptide MIC + Gentamicin (S. maltophilia SMA019): 4 mg/L | Gentamicin MIC + Peptide (S. maltophilia SMA020): 16 mg/L | Peptide MIC + Gentamicin (S. maltophilia SMA020): 4 mg/L | Gentamicin MIC + Peptide (S. maltophilia SMA021): 16 mg/L | Peptide MIC + Gentamicin (S. maltophilia SMA021): 4 mg/L | Amikacin MIC + Peptide (S. maltophilia SMA022): 32 mg/L | Peptide MIC + Amikacin (S. maltophilia SMA022): 32 mg/L | Peptide MIC + Piperacillin (S. marcescens 1): 4 mg/L | Piperacillin MIC + Peptide (S. marcescens 1): 16 mg/L | Peptide MIC Alone (S. marcescens 1, Piperacillin section): >128 mg/L | FIC (peptide + Amikacin, A. baumannii ABI001): 0.52 | FIC (peptide + Amikacin, A. baumannii ABI003): 0.52 | FIC (peptide + Amikacin, E. faecalis EFS008): 0.50 | FIC (peptide + Amikacin, E. faecium EFM004): 0.56 | FIC (peptide + Amikacin, P. aeruginosa PA022): 0.50 | FIC (peptide + Amikacin, S. aureus SA025 MRSA): 0.56 | FIC (peptide + Amikacin, S. epidermidis SE003): 0.38 | FIC (peptide + Amikacin, S. maltophilia SMA018): 0.50 | FIC (peptide + Amikacin, S. maltophilia SMA022): 0.25 | FIC (peptide + Ciprofloxacin, P. aeruginosa PA4): 0.50 | FIC (peptide + Ciprofloxacin, P. aeruginosa PA41): 0.50 | FIC (peptide + Ciprofloxacin, S. aureus SA25): 0.50 | FIC (peptide + Ciprofloxacin, S. aureus SA93): 0.38 | FIC (peptide + Gentamicin, A. baumannii ABI002): 0.56 | FIC (peptide + Gentamicin, P. aeruginosa PA022): 0.50 | FIC (peptide + Gentamicin, S. aureus SA025 MRSA): 0.63 | FIC (peptide + Gentamicin, S. maltophilia SMA019): 0.50 | FIC (peptide + Gentamicin, S. maltophilia SMA020): 0.50 | FIC (peptide + Gentamicin, S. maltophilia SMA021): 0.50 | FIC (peptide + Piperacillin, E. coli 1): 0.53 | FIC (peptide + Piperacillin, H. influenzae 1): 0.31 | FIC (peptide + Piperacillin, H. influenzae 2): 0.38 | FIC (peptide + Piperacillin, P. aeruginosa 23): 0.19 | FIC (peptide + Piperacillin, S. aureus 19 MRSA): 0.51 | FIC (peptide + Piperacillin, S. aureus SB2MRSA): 0.56 | FIC (peptide + Piperacillin, S. maltophilia 6): 0.38 | FIC (peptide + Piperacillin, S. maltophilia 14): 0.53 | FIC (peptide + Piperacillin, S. marcescens 1): 0.27
